Measurements from PubChem BioAssay (NCI).
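All cell lines were grown in 96-well plates and treated with compound for 48 hours. At the GI50, growth is halved. At the TGI there is no net growth.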

Tests used:
Assay in all cases: DTP human tumour cell line panel, 48 h
CCRF-CEM leukemia = system: CCRF-CEM leukemia
EKVX NSCLC = system: EKVX NSCLC
IGROV1 ovarian = system: IGROV1 ovarian
M14 melanoma = system: M14 melanoma
NCI/ADR-RES ovarian = system: NCI/ADR-RES ovarian
OVCAR-8 ovarian = system: OVCAR-8 ovarian
SF-268 CNS = system: SF-268 CNS
SK-MEL-28 melanoma = system: SK-MEL-28 melanoma
U251 CNS = system: U251 CNS
A549 NSCLC = system: A549 NSCLC

| SMILES | GI50 (CCRF-CEM leukemia) | TGI (CCRF-CEM leukemia) | GI50 (EKVX NSCLC) | TGI (EKVX NSCLC) | GI50 (IGROV1 ovarian) | TGI (IGROV1 ovarian) | GI50 (M14 melanoma) | TGI (M14 melanoma) | GI50 (NCI/ADR-RES ovarian) | TGI (NCI/ADR-RES ovarian) | GI50 (OVCAR-8 ovarian) | TGI (OVCAR-8 ovarian) | GI50 (SF-268 CNS) | TGI (SF-268 CNS) | GI50 (SK-MEL-28 melanoma) | TGI (SK-MEL-28 melanoma) | GI50 (U251 CNS) | TGI (U251 CNS) | TGI (A549 NSCLC) | GI50 (A549 NSCLC) |
| --- | --- | --- | --- | --- | --- | --- | --- | --- | --- | --- | --- | --- | --- | --- | --- | --- | --- | --- | --- | --- |
| COc1ccc(/C=C/c2c(C(=O)/C=C/c3ccccc3)c(C)nc3ccccc23)cc1 | 2.33 µM | > 100 µM | 1.77 µM | 3.56 µM | 1.57 µM | 5.36 µM | 1.84 µM | 4.44 µM | 2.51 µM | 7.52 µM | 1.75 µM | 4.1 µM | 2.18 µM | 5.65 µM | 1.88 µM | 3.47 µM | 1.61 µM | 2.96 µM |  |  |
| CC(=O)O[C@H]1CCC2[C@@H]3CC[C@]4(C)CC(=O)C=C[C@]4(C)C3CC[C@@]21C (some centres not stated) |  | 57.9 µM |  | > 90.5 µM |  | 58.3 µM |  | 34.1 µM |  | 40.5 µM |  | 34.2 µM |  | 43.8 µM |  | 33.9 µM |  | 33.1 µM | 37.9 µM |  |
| Cc1cc(C(=O)Nc2ccc3cc(CN4CCOCC4)ccc3n2)c(C)n1-c1ccccc1 | 1.86 µM | > 93.7 µM | 1.38 µM | > 100 µM | 3.92 µM | 44.8 µM | 1.81 µM | 5.71 µM | 1 µM | 4.69 µM | 1.21 µM | 5.43 µM | 3.35 µM | 35.7 µM | 2.91 µM | 8.91 µM | 3.78 µM | > 100 µM | 12.1 µM | 2.42 µM |
| COCC[C@H]1CCC/C=C/[C@@H]2C[C@H](O)C[C@H]2[C@H](O)/C=C/C(=O)O1 | 0.322 µM | > 100 µM | 0.114 µM | > 100 µM | 0.331 µM | > 29 µM | 0.0436 µM | > 100 µM | 0.0472 µM |  | 0.0483 µM | > 100 µM | 0.0488 µM | > 100 µM | 0.0345 µM | 0.153 µM | 0.166 µM | > 100 µM | > 100 µM | 0.113 µM |
| COc1cc(OC)c(C(=O)/C=C/c2cccc(C(F)(F)F)c2)c(OC)c1 | 1.09 µM | 3.46 µM | 1.5 µM | 4.3 µM | 1.71 µM | 5.6 µM | 1.06 µM | 2.62 µM | 1.4 µM | 5.95 µM | 1.41 µM | 5.86 µM | 1.64 µM | 6.13 µM | 1.51 µM | 4.74 µM | 1.01 µM | 2.1 µM | 4.82 µM | 1.48 µM |
| COc1ccc(C(=O)c2cc(C)c(OC)c(C)c2)cc1OC(=O)CCl | < 0.01 µM | > 100 µM | 0.0928 µM | > 100 µM | 0.0352 µM | > 100 µM | < 0.01 µM | 22.8 µM | < 0.01 µM | > 63.5 µM | < 0.01 µM | > 100 µM | < 0.011 µM | > 100 µM | 0.0396 µM | > 100 µM | < 0.01 µM | > 100 µM | > 100 µM | 0.0845 µM |
| O=C1c2cccnc2-c2nc(-c3ccc(Cl)cc3)cc3c2c1nc1ccccc13 | > 100 µM | > 100 µM | > 100 µM | > 100 µM | 32.3 µM | > 100 µM | 19.9 µM | 58 µM | 55.2 µM | > 100 µM | 98.4 µM | > 100 µM | 71.2 µM | > 100 µM | 34.7 µM | > 100 µM | 9.24 µM | 37.1 µM | > 100 µM | 35.6 µM |
| CC(C)c1ccc(-c2cc(-c3cn[nH]c3-c3ccccn3)ccn2)cc1 | 10.8 µM | > 25 µM | 11.3 µM | > 25 µM | > 23.3 µM | > 25 µM | 14.4 µM | > 25 µM | 7.98 µM | > 25 µM | 9.57 µM | > 25 µM | 14.9 µM | > 25 µM | > 25 µM | > 25 µM | 11.8 µM | > 25 µM | > 25 µM | 13.7 µM |
| COc1ccc(C(=O)c2cc(C)c(OC)c(C)c2)c(OC)c1O | 0.0323 µM | > 100 µM | 0.238 µM | > 100 µM | 0.672 µM | > 100 µM |  |  | 0.0257 µM |  | 0.0459 µM | > 100 µM | 0.207 µM | > 100 µM | 1.42 µM | > 100 µM | 0.0485 µM | > 100 µM | > 100 µM | 0.32 µM |
| O=c1cc(NCC(O)CN2CCCC2)n(Cc2ccccc2)c(=O)n1Cc1ccccc1 (configuration not stated) | 28.1 µM | 80.6 µM | > 100 µM | > 100 µM | 26.6 µM | 95.4 µM |  |  | > 100 µM | > 100 µM | > 100 µM | > 100 µM | 47.5 µM | > 100 µM | 16.7 µM | 34.6 µM | 43.6 µM | > 100 µM | > 100 µM | > 100 µM |
